Reference: patent publication US9763961B2, “Compositions that modulate the activity of estrogen receptors and estrogen-related receptors and methods for use” (CITY OF HOPE, priority 2005, dated 2017)

Assays:
ERRα = target: T1, ERRα (Homo sapiens, UniProt P11474); test: Transient transfection assays, relative luciferase activity for ERRα (FIG. 7); type: cell-based
T1 sequence (P11474 1-423): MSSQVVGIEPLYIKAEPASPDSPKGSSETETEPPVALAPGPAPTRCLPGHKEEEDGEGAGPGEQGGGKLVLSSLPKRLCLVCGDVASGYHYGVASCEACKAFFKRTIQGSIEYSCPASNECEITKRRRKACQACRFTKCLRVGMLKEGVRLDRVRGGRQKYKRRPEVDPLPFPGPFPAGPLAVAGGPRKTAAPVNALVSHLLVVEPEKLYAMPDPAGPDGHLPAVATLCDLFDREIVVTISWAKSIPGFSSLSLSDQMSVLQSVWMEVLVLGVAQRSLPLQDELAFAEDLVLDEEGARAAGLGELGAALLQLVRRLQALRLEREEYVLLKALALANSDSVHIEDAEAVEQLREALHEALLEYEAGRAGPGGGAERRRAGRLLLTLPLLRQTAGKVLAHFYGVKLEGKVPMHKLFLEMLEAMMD
Description: HeLa cells were cultured in MEM Earle's salts medium supplemented with 5% charcoal/dextran-treated fetal bovine serum. Cells were then divided and cultured in 6-well plates until 80% confluence was achieved. The cells were next transfected with 4 μg Lipofectin. An equal amount of total DNA was used in all transfections by including appropriate amounts of the empty vector, pSG5, in addition to specific amounts of pSG5-ERRα and luciferase reporter plasmids (ERRE (ERRα recognizes an ERE half site)-containing reporter and aromatase promoter I.3-containing reporter). Following an overnight incubation, the medium containing Lipofectin and DNA was removed, and the cells cultured in a growth medium containing 5% charcoal/dextran-treated fetal bovine serum with or without ligands. After a 24-hour incubation, the cells was harvested from the plates by scraping, and the luciferase activities in the cell lysates (with the same amounts of protein) was measured according to the manufacturer's instructions (Promega). All experiments were performed in triplicate.
Referring to FIG. 2, we have also prepared GAL4-ERRα expression plasmid and luciferase reporter plasmids with GAL4 response element. This is a more sensitive assay method than that using pSG5-ERRα and ERE luciferase reporter plasmids.
The 2-methoxyl group may be important for the antagonistic activity of the chalcone. […]

[1] = target: T2, human placental microsomal aromatase (Homo sapiens, UniProt P11511); test: In vitro aromatase inhibition assay on human placental microsomal aromatase preparation; type: biochemical; details: increasing concentrations (200 pM-200 mM), FIG. 6A
T2 construct: performed on a human placental microsomal aromatase preparation; from tissue; host or cells: human placenta, microsomes
T2 sequence (P11511 1-503): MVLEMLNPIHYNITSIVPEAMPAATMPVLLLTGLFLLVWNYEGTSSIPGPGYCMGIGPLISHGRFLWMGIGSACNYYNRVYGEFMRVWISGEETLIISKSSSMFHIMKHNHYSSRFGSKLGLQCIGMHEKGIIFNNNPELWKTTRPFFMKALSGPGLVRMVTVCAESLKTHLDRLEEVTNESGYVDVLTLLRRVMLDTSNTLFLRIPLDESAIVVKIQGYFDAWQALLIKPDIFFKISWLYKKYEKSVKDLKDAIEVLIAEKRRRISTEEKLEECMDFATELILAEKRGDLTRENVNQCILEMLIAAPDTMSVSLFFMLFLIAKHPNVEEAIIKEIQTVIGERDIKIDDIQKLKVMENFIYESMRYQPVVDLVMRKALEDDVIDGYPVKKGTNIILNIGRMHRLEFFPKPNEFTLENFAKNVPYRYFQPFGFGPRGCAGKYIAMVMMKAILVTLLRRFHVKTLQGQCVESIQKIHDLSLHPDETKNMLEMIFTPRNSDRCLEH
Description: (§1) To evaluate the effect of chalcones on aromatase activity, we performed both in vitro assay and in-cell assay with chalcones. […] In addition, MCF-7 aro cells, which are stable aromatase-expressing breast cancer cell line, were incubated with chalcones.
(§2) Referring to FIG. 6, the effect of Compound No. 1-9 on aromatase activity was investigated by both in vitro inhibition assay (A) and in-cell aromatase assay (B; MCF-7 aro cells, C; HepG2 cells, D; SK-BR-3 cells). Referring to FIG. 6A, aromatase inhibition study with Compound No. 1-9 was performed on a human placental microsomal aromatase preparation using the assay procedures described in (9). Referring to FIG. 6B, MCF-7 aro cells, which are stable aromatase-expressing cell line generated in our laboratory (10), were incubated with 10 μM of Compound No. 1-9. After 24 h incubation, aromatase activity was measured by [3H] H20 release method. HepG2 cells, as shown in FIG. 6C and SK-BR-3 cells as shown in FIG. 6D were also incubated with Compound No. 1-9 for 24 h, and aromatase activities were measured. Values represent the mean±SD.

[2] = system: aromatase in SK-BR-3 cells; test: In-cell aromatase assay in SK-BR-3 cells; type: cell-based; details: 24 h, FIG. 6D
Description: as §1, §2

[3] = target: T3, aromatase in MCF-7 aro cells (Homo sapiens, UniProt P11511); test: In-cell aromatase assay ([3H] H2O release) in MCF-7 aro cells; type: cell-based; details: 10 μM, 24 h, FIG. 6B
T3 construct: expressed in transfected cells
T3 sequence (P11511 1-503): T2 sequence (P11511 1-503)
Description: as §1, §2

[4] = system: ERRα with coactivators GRIP-1 and PGC-1a; test: Coactivator (GRIP-1, PGC-1a)-induced ERRα activity, Gal4-TK-Luc cotransfection in HeLa cells; type: cell-based; details: GRIP-1 and PGC-1a cotransfection, FIG. 3
From the text: To further confirm the antagonism of chalcones, the effect of Compound No. 1-9 on the interaction between ERRα and coactivators (GRIP-1 and PGC-1a) were investigated. HeLa cells were cotransfected with GAL4-binding site containing luciferase reporter and the expression plasmids for ERRα, GRIP-1 and PGC-1a. The ERRα activity was induced 5-fold and 13-fold by cotransfection with GRIP-1 and PGC-1 a, respectively.
Referring to FIG. 3, cotransfection experiments with GAL4-binding site containing luciferase reporter (Gal4-TK-Luc; 0.5 μg) and the expression plasmids for ERRα (pM-ERRα LBD; 0.5 μg), GRIP-1 (pSG5-GRIP-1; 0.5 μg) and PGC-1a(pSG5-PGC-1α; 0.25 μg) were performed in HeLa cells. Values represent the mean±SD.

- IC50 (ERRα; read-out: IC50 values through transient transfection assays): 0.7 to 2 µM
- Effect on aromatase activity, in vitro assay [1]: did not inhibit aromatase activity
- Effect on aromatase activity, in-cell assay, MCF-7 aro cells [3]: did not inhibit aromatase activity
SMILES: COc1cccc(/C=C/C(=O)c2ccc(O)cc2O)c1OC [Compound No. 1-9, 2′,4′-Dihydroxy-2,3-dimethoxychalcone]
- Effect on constitutive activity of ERRα (relative luciferase activity) (ERRα; compared to DMSO control, FIG. 7): can suppress the constitutive activity of ERRα
- Effect on aromatase activity, SK-BR-3 cells [2]: inhibited aromatase activity in a dose-dependent manner
- Effect on coactivator-induced ERRα activity [4]: suppressed the coactivator-induced ERRα activity in a dose-dependent manner
